What all share (assay type): cell-based
The subject of experiment [1] is Staphylococcus aureus K2378 (overexpresses the efflux pump NorA from a multicopy plasmid). As to the kind of experiment: Efflux pump inhibition assay with sub-inhibitory ciprofloxacin. The settings on record: S. aureus K2378; in the presence of ciprofloxacin 0.5 mg/L.
Experiment [2] deals with Staphylococcus warneri (CHUG-Swar5). As to the kind of experiment: MIC, Staphylococcus panel (9.2). The settings on record: S. warneri CHUG-Swar5, 4% DMSO, 18 h. As for the experimental part:
(§1) The microdilution method recommended by the Clinical and Laboratory Standard Institute [M07-A9, Vol. 32, N° 2] was used. The activity of bis-indolic compounds 3f and 4 was tested against 35 Staphylococcus bacterial strains corresponding to 12 different species,
(§2) Bacterial inocula were prepared in Mueller Hinton broth (MH2, BioMérieux, Marcy L'Etoile, France). They were dispensed in 96 well microtiter plates (5×10^5 CFU/ml of final inoculum, 192 μL per well). Indolic compounds diluted in pure DMSO (8 μL per well, concentrated 25 times) were added to the wells as to obtain two-fold serial concentrations (0.5-32 mg/L of final concentrations). The final concentration of DMSO was 4% in each well.
(§3) To avoid cross-contaminations in microtiter plates, one row was left blank between each strain tested. Microplates were incubated for 18 h at 37° C. in ambient air. Then MICs were read visually and, in case of visual reading difficulties, confirmed using a spectrophotometer at a wavelength of 630 nm (BioTek® EL808 Absorbance Microplate Reader). MICs corresponded to the minimum bis-indolic compound concentration that allowed complete visual growth inhibition of bacteria. Drug-free cultures served as growth controls.
(§4) Coagulase-negative Staphylococcus strains included three reference strains purchased from CRBIP: a methicillin-susceptible S. epidermidis strain (ATCC 12228), a methicillin-resistant S. epidermidis strain (ATCC 49461), and a methicillin-susceptible S. sciuri strain (ATCC 29061). We also used clinical strains belonging to the following coagulase-negative Staphylococcus species: S. auricularis (two strains), S. warneri (five strains), S. capitis (five strains), S. haemolyticus (four strains), S. hominis (seven strains), S. cohnii (two strains), and S. saprophyticus, S. caprae and S. simulans (one strain each). Identification of the clinical strains was obtained using VITEK® 2 System (Biomérieux). The specified strain numbers correspond to an internal number of the bacterial strain collection of our laboratory.

Experiment [3] has as its system Staphylococcus warneri (CHUG-Swar6). As to the kind of experiment: MIC, Staphylococcus panel (9.2). Conditions: S. warneri CHUG-Swar6, 4% DMSO, 18 h. As to the method:
as §1, §2, §3, §4

Experiment [4] relates to Staphylococcus haemolyticus (CHUG-Shae5). As to the kind of experiment: MIC, Staphylococcus panel (9.2). Conditions: S. haemolyticus CHUG-Shae5, 4% DMSO, 18 h. As for the experimental part: as §1, §2, §3, §4
Experiment [5] concerns Staphylococcus hominis (CHUG-Shom8). As to the kind of experiment: MIC, Staphylococcus panel (9.2). Conditions: S. hominis CHUG-Shom8, 4% DMSO, 18 h. As to the method:
as §1, §2, §3, §4

Experiment [6] concerns Staphylococcus hominis (CHUG-Shom5). As to the kind of experiment: MIC, Staphylococcus panel (9.2). The settings on record: S. hominis CHUG-Shom5, 4% DMSO, 18 h. As to the method:
as §1, §2, §3, §4

Experiment [7] deals with Staphylococcus hominis (CHUG-Shom4). As to the kind of experiment: MIC, Staphylococcus panel (9.2). Conditions: S. hominis CHUG-Shom4, 4% DMSO, 18 h. As to the method:
as §1, §2, §3, §4

In experiment [8] the test system is Staphylococcus haemolyticus (CHUG-Shae4). As to the kind of experiment: MIC, Staphylococcus panel (9.2). The settings on record: S. haemolyticus CHUG-Shae4, 4% DMSO, 18 h. As to the method: as §1, §2, §3, §4
Experiment [9] has as its system Staphylococcus saprophyticus (CHUG-Ssap2). As to the kind of experiment: MIC, Staphylococcus panel (9.2). Conditions: S. saprophyticus CHUG-Ssap2, 4% DMSO, 18 h. As to the method: as §1, §2, §3, §4
Experiment [10] concerns Staphylococcus hominis (CHUG-Shom6). As to the kind of experiment: MIC, Staphylococcus panel (9.2). Conditions: S. hominis CHUG-Shom6, 4% DMSO, 18 h. As to the method:
as §1, §2, §3, §4

In experiment [11] the test system is Staphylococcus cohnii (CHUG-Scoh1) (MRSA). As to the kind of experiment: MIC, Staphylococcus panel (9.2). The settings on record: S. cohnii CHUG-Scoh1 (MRSA), 4% DMSO, 18 h. As for the experimental part:
as §1, §2, §3, §4

For experiment [12], the system named is Staphylococcus cohnii (CHUG-Scoh2). As to the kind of experiment: MIC, Staphylococcus panel (9.2). Conditions: S. cohnii CHUG-Scoh2, 4% DMSO, 18 h. As for the experimental part:
as §1, §2, §3, §4

For experiment [13], the system named is Staphylococcus auricularis (CHUG-Saur3). As to the kind of experiment: MIC, Staphylococcus panel (9.2). The settings on record: S. auricularis CHUG-Saur3, 4% DMSO, 18 h. As for the experimental part: as §1, §2, §3, §4
For experiment [14], the system named is Staphylococcus capitis (CHUG-Scap7). As to the kind of experiment: MIC, Staphylococcus panel (9.2). Conditions: S. capitis CHUG-Scap7, 4% DMSO, 18 h. As for the experimental part:
as §1, §2, §3, §4

Experiment [15] has as its system Staphylococcus hominis (CHUG-Shom3). As to the kind of experiment: MIC, Staphylococcus panel (9.2). The settings on record: S. hominis CHUG-Shom3, 4% DMSO, 18 h. As for the experimental part: as §1, §2, §3, §4
The test system of experiment [16] is Staphylococcus capitis (CHUG-Scap6). As to the kind of experiment: MIC, Staphylococcus panel (9.2). The settings on record: S. capitis CHUG-Scap6, 4% DMSO, 18 h. As for the experimental part: as §1, §2, §3, §4
For experiment [17], the system named is Staphylococcus capitis (CHUG-Scap5). As to the kind of experiment: MIC, Staphylococcus panel (9.2). Conditions: S. capitis CHUG-Scap5, 4% DMSO, 18 h. As to the method:
as §1, §2, §3, §4

The subject of experiment [18] is Staphylococcus warneri (CHUG-Swar7). As to the kind of experiment: MIC, Staphylococcus panel (9.2). Conditions: S. warneri CHUG-Swar7, 4% DMSO, 18 h. As to the method: as §1, §2, §3, §4

Structures are written as SMILES. ≈ marks a conversion by molar mass, not a printed value.

The term MIC denotes the lowest concentration that inhibits growth of the organism. High values mean a less susceptible organism, low ones a more susceptible organism.

Consider `Cn1cc(C(=O)NC(CNC(=O)OC(C)(C)C)c2c[nH]c3ccc(Br)cc23)c2cc(Br)ccc21` (stereo not drawn) [Compound 7, tert-Butyl (2-(5-bromo-1-methyl-1H-indole-3-carboxamido)-2-(5-bromo-1H-indol-3-yl)ethyl) carbamate], for which the “MIC, mg/L (Ciprofloxacin concentration, mg/L)” value in experiment [1] is 0.125 (0.5) mg/L.
As for `CC(C)(C)OC(=O)NCC(NC(=O)c1c[nH]c2ccc(Br)cc12)c1c[nH]c2ccc(Br)cc12` (stereo not drawn) [Compound 3f, tert-Butyl(2-(5-bromo-1H-indol-3-yl)-2-(5-bromo-1H-indolyl-3-carboxamido)ethyl)carbamate], the MIC in [2] was 8 µg/mL (≈ 13.9 µM); in experiment [3] it was 8 µg/mL (≈ 13.9 µM); in experiment [4], 16 µg/mL (≈ 27.8 µM); in experiment [5], 8 µg/mL (≈ 13.9 µM); in experiment [6] it was 8 µg/mL (≈ 13.9 µM); in [7] it was 8 µg/mL (≈ 13.9 µM). Also, the MIC in experiment [8] is 16 µg/mL (≈ 27.8 µM); in experiment [9], 8 µg/mL (≈ 13.9 µM); in experiment [10], 8 µg/mL (≈ 13.9 µM); in [11], 16 µg/mL (≈ 27.8 µM); in experiment [12] it was 16 µg/mL (≈ 27.8 µM); in experiment [13], 8 µg/mL (≈ 13.9 µM). Further, the MIC turned out to be 16 µg/mL (≈ 27.8 µM) in experiment [14]; 16 µg/mL (≈ 27.8 µM) in experiment [15]; 8 µg/mL (≈ 13.9 µM) in experiment [16]; 16 µg/mL (≈ 27.8 µM) in [17]; 8 µg/mL (≈ 13.9 µM) in experiment [18].

These data come from patent publication US9676715B2, “Bis-indolic derivatives, a process for preparing the same and their uses as a drug” (UNIVERSITE JOSEPH FOURIER, priority 2011, dated 2017).
